Structures are written as SMILES.

Usually Kd stands for the free concentration of one partner at which half of the binding sites on the other are occupied at equilibrium, for simple one-to-one binding. Higher therefore signals a looser complex.

The target in this test is T1, TtPFK (Thermus thermophilus, UniProt P21777, L313W).
T1 sequence (P21777 1-322 L313W): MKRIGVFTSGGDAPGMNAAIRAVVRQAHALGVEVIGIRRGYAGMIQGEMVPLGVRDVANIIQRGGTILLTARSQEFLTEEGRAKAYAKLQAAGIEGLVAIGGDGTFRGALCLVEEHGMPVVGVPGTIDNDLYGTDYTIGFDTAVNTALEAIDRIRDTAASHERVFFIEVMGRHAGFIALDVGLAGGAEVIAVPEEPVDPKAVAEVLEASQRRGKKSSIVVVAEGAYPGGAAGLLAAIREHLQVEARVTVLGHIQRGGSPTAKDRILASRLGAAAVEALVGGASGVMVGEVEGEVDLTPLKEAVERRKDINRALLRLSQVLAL
In words: intrinsic tryptophan fluorescence titration. Format: binding.

Consider `C=C(OP(=O)(O)O)C(=O)O` [PEP], for which the Kd is 0.66 ± 0.06 µM.

The record behind these values is publication PMC3982590 (Biochemistry, 2013).
